Experimental data as given in patent publication US10626125B2, “1,1,1-trifluoro-3-hydroxypropan-2-yl carbamate derivatives as MAGL inhibitors” (PFIZER INC., priority 2017, dated 2020).
Where two headings read alike, the source gives them in different places.

Tests used:
[1] = target: T1, human recombinant Monoacylglycerol Lipase (Homo sapiens, UniProt Q99685); assay: MAGL inactivation (kinact/KI from enzyme progress curves, T=0 min protocol); conditions: from plot of Kobs vs. compound concentration, geometric mean of 2-5 determinations (b: ≥6)
T1 sequence (Q99685 1-303): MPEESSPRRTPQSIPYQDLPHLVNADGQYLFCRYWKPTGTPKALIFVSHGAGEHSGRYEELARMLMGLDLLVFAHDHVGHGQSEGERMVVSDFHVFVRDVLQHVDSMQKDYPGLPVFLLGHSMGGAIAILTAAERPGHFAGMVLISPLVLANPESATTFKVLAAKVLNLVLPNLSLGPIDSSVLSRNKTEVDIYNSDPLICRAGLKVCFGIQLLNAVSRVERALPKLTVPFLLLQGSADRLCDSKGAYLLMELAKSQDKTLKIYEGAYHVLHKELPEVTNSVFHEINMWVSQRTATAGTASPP

[2] = target: T1, human recombinant Monoacylglycerol Lipase; assay: MAGL enzymatic assay (IC50; 7-HCA substrate added at T=0 min or T=30 min); format: biochemical; conditions: geometric mean of 2-5 determinations unless otherwise indicated
[3] = MAGL (T = 30 min) IC50, substrate 7-HCA added after 30 minute incubation (T=30 min)
[4] = substrate 7-HCA added immediately (T=0 min), read-out: MAGL (T = 0 min) IC50

MAGL kinact/KI [1] | IC50 [2, 3] [nM] | IC50 [2, 4] [nM] | Structure (SMILES)
9650 1/s per M | 9 | 68 | O=C(O[C@H](CO)C(F)(F)F)N1CCC2(CC1)CC(n1cc(C3CC3)cn1)CO2 (mixture of isomers) [Example 23, (2R)-1,1,1-trifluoro-3-hydroxypropan-2-yl 3-(4-cyclopropyl-1H-pyrazol-1-yl)-1-oxa-8-azaspiro[4.5]decane-8-carboxylate, mixture of diastereomers]
1810 1/s per M | 21 | 169 | CN(C(=O)C1CC(F)(F)C1)[C@H]1COC2(CCN(C(=O)O[C@H](CO)C(F)(F)F)CC2)C1 [Example 58, (2R)-1,1,1-trifluoro-3-hydroxypropan-2-yl (3R)-3-{[(3,3-difluorocyclobutyl)carbonyl](methyl)amino}-1-oxa-8-azaspiro[4.5]decane-8-carboxylate]
33800 1/s per M | 2 | 21 | O=C(O[C@H](CO)C(F)(F)F)N1CCC2(CC1)CC(c1ccc(F)cn1)C2 [Example 2, (2R)-1,1,1-Trifluoro-3-hydroxypropan-2-yl 2-(5-fluoropyridin-2-yl)-7-azaspiro[3.5]nonane-7-carboxylate]
18100 1/s per M | 1 | 10 | O=C(O[C@H](CO)C(F)(F)F)N1CCC2(CC1)CC(n1ncc3ccccc31)CO2 (single isomer, unassigned) [Example 62]
53400 1/s per M | 1 | 10 | O=C(O[C@H](CO)C(F)(F)F)N1CCC2(CC1)CC(c1ccc(F)cc1F)CO2 (single isomer, unassigned) [Example 33]
17100 1/s per M | 2 | 17 | COc1cc(C2CC3(CCN(C(=O)O[C@H](CO)C(F)(F)F)CC3)C2)ccn1 [Example 47, (2R)-1,1,1-trifluoro-3-hydroxypropan-2-yl 2-(2-methoxypyridin-4-yl)-7-azaspiro[3.5]nonane-7-carboxylate]
7370 1/s per M | 12 | 115 | O=C(O[C@H](CO)C(F)(F)F)N1CCC2(CCC(n3cc(C(F)F)cn3)CO2)CC1 (single isomer, unassigned) [Example 75]
75400 1/s per M | 1 | 9 | O=C(O[C@H](CO)C(F)(F)F)N1CCC2(CC1)CC(c1cc(C(F)F)ccn1)C2 [Example 78, (2R)-1,1,1-trifluoro-3-hydroxypropan-2-yl 2-[4-(difluoromethyl)pyridin-2-yl]-7-azaspiro[3.5]nonane-7-carboxylate]
137000 1/s per M | 1 | 5 | O=C(O[C@H](CO)C(F)(F)F)N1CCC2(CC1)CC(Oc1ccnc(C(F)(F)F)c1)C2 [Example 59, (2R)-1,1,1-trifluoro-3-hydroxypropan-2-yl 2-{[2-(trifluoromethyl)pyridin-4-yl]oxy}-7-azaspiro[3.5]nonane-7-carboxylate]
22200 1/s per M | 2 | 12 | O=C(O[C@H](CO)C(F)(F)F)N1CCC2(CC1)CC(n1cc(C(F)(F)F)cn1)C2 [Example 1, (2R)-1,1,1-Trifluoro-3-hydroxypropan-2-yl 2-[4-(trifluoromethyl)-1H-pyrazol-1-yl]-7-azaspiro[3.5]nonane-7-carboxylate]
32600 1/s per M | 2 | 26 | O=C(O[C@H](CO)C(F)(F)F)N1CCC2(CC1)CC(Oc1ccccn1)C2 [Example 87, (2R)-1,1,1-trifluoro-3-hydroxypropan-2-yl 2-(pyridin-2-yloxy)-7-azaspiro[3.5]nonane-7-carboxylate]
16900 1/s per M | 3 | 27 | N#Cc1cc(C2COC3(CCN(C(=O)O[C@H](CO)C(F)(F)F)CC3)C2)ccc1F (single isomer, unassigned) [Example 28]
40400 1/s per M | 2 | 22 | O=C(O[C@H](CO)C(F)(F)F)N1CCC2(CCC(n3cc(F)cn3)CO2)CC1 (single isomer, unassigned) [Example 70]
206000 1/s per M | 0.2 | 2 | O=C(O[C@H](CO)C(F)(F)F)N1CCC2(CC1)CC(c1cccc(C(F)(F)F)n1)C2 [Example 76, (2R)-1,1,1-trifluoro-3-hydroxypropan-2-yl 2-[6-(trifluoromethyl)pyridin-2-yl]-7-azaspiro[3.5]nonane-7-carboxylate]
4710 1/s per M | 8 | 65 | O=C(O[C@H](CO)C(F)(F)F)N1CCC2(CC1)CC(Cn1cc(C(F)(F)F)cn1)CO2 (single isomer, unassigned) [Example 4]
3250 1/s per M | 17 | 184 | N#Cc1ccc(F)c(C2COC3(CCN(C(=O)O[C@H](CO)C(F)(F)F)CC3)C2)c1 (single isomer, unassigned) [Example 29]
34100 1/s per M | 1 | 11 | O=C(O[C@H](CO)C(F)(F)F)N1CCC2(CC1)CC(Oc1ccccc1)C2 [Example 63, (2R)-1,1,1-trifluoro-3-hydroxypropan-2-yl 2-phenoxy-7-azaspiro[3.5]nonane-7-carboxylate]
13200 1/s per M | 7 | 76 | O=C(O[C@H](CO)C(F)(F)F)N1CCC2(CC1)CC(c1ccccn1)CO2 (single isomer, unassigned) [Example 41]
88300 1/s per M | 0.9 | 9 | O=C(O[C@H](CO)C(F)(F)F)N1CCC2(CC1)CC(c1ccnc(C(F)(F)F)c1)C2 [Example 68, (2R)-1,1,1-trifluoro-3-hydroxypropan-2-yl 2-[2-(trifluoromethyl)pyridin-4-yl]-7-azaspiro[3.5]nonane-7-carboxylate]
5010^b 1/s per M | 9 | 92 | O=C(O[C@H](CO)C(F)(F)F)N1CCC2(CC1)CC(c1ccc(F)cn1)CO2 (single isomer, unassigned) [Example 16]
23000 1/s per M | 3 | 31 | O=C(O[C@H](CO)C(F)(F)F)N1CCC2(CC1)CC(c1cc(C(F)F)ccn1)CO2 (single isomer, unassigned) [Example 35]
15700 1/s per M | 4 | 40 | O=C(O[C@H](CO)C(F)(F)F)N1CCC2(CC1)CC(n1cc(C(F)F)cn1)C2 [Example 66, (2R)-1,1,1-trifluoro-3-hydroxypropan-2-yl 2-[4-(difluoromethyl)-1H-pyrazol-1-yl]-7-azaspiro[3.5]nonane-7-carboxylate]
1420 1/s per M | 30 | 310 | O=C(O[C@H](CO)C(F)(F)F)N1CCC2(CC1)CC(n1cccn1)C2 [Example 56, (2R)-1,1,1-trifluoro-3-hydroxypropan-2-yl 2-(1H-pyrazol-1-yl)-7-azaspiro[3.5]nonane-7-carboxylate]
25500 1/s per M | 2 | 20 | O=C(O[C@H](CO)C(F)(F)F)N1CCC2(CC1)CC(c1ccccc1F)CO2 (single isomer, unassigned) [Example 25]
15700 1/s per M | 2 | 30 | CN(C(=O)C1CC1)C1CC2(CCN(C(=O)O[C@H](CO)C(F)(F)F)CC2)C1 [Example 55, (2R)-1,1,1-trifluoro-3-hydroxypropan-2-yl 2-[(cyclopropylcarbonyl)(methyl)amino]-7-azaspiro[3.5]nonane-7-carboxylate]
1390^b 1/s per M | 26 | 297 | O=C(O[C@H](CO)C(F)(F)F)N1CCC2(CC1)CC(c1ccc(F)cn1)CO2 (single isomer, unassigned) [Example 17]
63500 1/s per M | 1 | 8 | O=C(O[C@H](CO)C(F)(F)F)N1CCC2(CC1)CC(c1ccc(C(F)(F)F)cn1)C2 [Example 79, (2R)-1,1,1-trifluoro-3-hydroxypropan-2-yl 2-[5-(trifluoromethyl)pyridin-2-yl]-7-azaspiro[3.5]nonane-7-carboxylate]
3840 1/s per M | 8 | 57 | O=C(O[C@H](CO)C(F)(F)F)N1CCC2(CC1)CC(c1ccc(C(F)F)nc1)CO2 (single isomer, unassigned) [Example 37]

Structure (SMILES) | MAGL kinact/KI [1] | IC50 [2, 3] [nM] | IC50 [2, 4] [nM]
O=C(O[C@H](CO)C(F)(F)F)N1CCC2(CC1)CC(c1cccc(C(F)(F)F)n1)CO2 (single isomer, unassigned) [Example 14] | 124000^b 1/s per M | 1 | 5
O=C(O[C@H](CO)C(F)(F)F)N1CCC2(CC1)CC(c1cccc(C(F)(F)F)n1)CO2 (single isomer, unassigned) [Example 15] | 8230 1/s per M | 7 | 67
CN(C1CC2(CCN(C(=O)O[C@H](CO)C(F)(F)F)CC2)C1)S(=O)(=O)CC1CC1 [Example 18, (2R)-1,1,1-Trifluoro-3-hydroxypropan-2-yl 2-{[(cyclopropylmethyl)sulfonyl](methyl)amino}-7-azaspiro[3.5]nonane-7-carboxylate] | 14900 1/s per M | 4 | 52
